Among the data in patent US8450355B2, “Compounds for the treatment of inflammatory diseases” (Merck Sharp & Dohme Corp., priority 2008, dated 2013) are IC50 and AUC values, retold here.

One may read the IC50 as the concentration that inhibits the measured activity by half. A low value points to greater potency. One may read the AUC as concentration integrated over time.

The first series has as its system TNF-α production from human whole blood. Description: Inhibition of TNF-α production from human whole blood (hWBA). Conditions: Table A; human whole blood diluted 1:1, LPS stimulation, 3.5 h, TNF-α by ELISA. The class given is cell-based. How it is done: Assay for Inhibition of TNF-α Production from Human Whole Blood (hWBA)
Human whole blood was diluted 1:1 with serum free medium (RPMI, L-glutamine, Pen-Strep, HEPES) and incubated with a test compound in a final volume of 360 μL for 1 h at 37° C. Forty microliters of LPS (10 μg/mL) was then added. Supernatant was collected after 3.5 h incubation and the concentration of TNF-α was determined by ELISA (R&D Systems). The concentration of the test compound which inhibits 50% of the amount of TNF-α from the control untreated control was determined.
Background: In an ELISA, binding on a coated surface is turned into a signal by an enzyme label.
The compound `COc1ccc2c(c1)C(=O)N(C[C@@](N)(C(=O)O)c1cc3cnccc3o1)C2` [Compound 1120A] displayed an IC50 of more than 10000 nM.
Still for that read-out and setting: with `COc1ccc2c(c1)C(=O)N(C[C@@](O)(C(=O)O)c1cc3cnccc3[nH]1)C2` [Compound 1120B] the figure was more than 10000 nM; with `COc1c(F)cc2c(c1F)C(=O)N(CC1(C#Cc3ccc(C4(CN)NC(=O)NC4=O)cc3)NC(=O)NC1=O)C2` (centres unmarked) [Compound 1150], more than 10000 nM.
Still for that read-out and setting: with `COc1c(F)cc2c(c1F)C(=O)N(C[C@@]1(c3cc4cnccc4o3)NC(=O)NC1=O)C2` [Compound 1160] the figure was 7140 nM.
The same measure, in the same setting: the result for `COc1c(F)cc2c(c1F)C(=O)N(CC1(c3cc4cnccc4o3)NC(=O)NC1=O)C2` (centres unmarked) [Compound 1165] reads more than 10000 nM; that for `COc1c(F)cc2c(c1F)C(=O)N(CC1(c3cc4ncccc4o3)NC(=O)NC1=O)C2` (centres unmarked) [Compound 1170], more than 10000 nM.
`COc1c(F)cc2c(c1F)C(=O)N(C[C@@]1(c3cc4ncccc4o3)NC(=O)NC1=O)C2` [Compound 1175] registered an IC50 of 7120 nM.
Same read-out and setting: with `COc1c(F)cc2c(c1F)C(=O)N(C[C@@]1(C#Cc3ccc(C(N)=O)cc3)NC(=O)NC1=O)C2` [Compound 1180] the figure was 1430 nM.
On the same count and under the same terms, the result for `COc1c(F)cc2c(c1F)C(=O)N(CC1(c3cc4nc(N5CCC(N(C)C)CC5)ccc4o3)NC(=O)NC1=O)C2` (centres unmarked) [Compound 1190] reads more than 10000 nM; that for `COC(=O)[C@@](CN1Cc2ccc(OC)c(F)c2C1=O)(NC(N)=O)c1cc2nc(Cl)c(F)cc2o1` [Compound 1304], 3100 nM.
Still for that read-out and setting: the result for `COc1ccc2c(c1)C(=O)N(C[C@@]1(c3cc4nc(C(=N)NO)ccc4o3)NC(=O)NC1=O)C2` [Compound 1500] reads 640 nM; that for `CCN1CCN(C(=N)c2ccc3oc([C@]4(CN5Cc6ccc(OC)cc6C5=O)NC(=O)NC4=O)cc3n2)CC1` [Compound 1501], 1890 nM; that for `COc1ccc2c(c1)C(=O)N(C[C@@]1(c3cc4nc(C(=N)N5CCCN(C)CC5)ccc4o3)NC(=O)NC1=O)C2` [Compound 1502], 1820 nM.
For `Cc1cc2cc3c(c(F)c2o1)C(=O)N(CC1(c2cc4nc(-c5cn[nH]c5)ccc4o2)NC(=O)NC1=O)C3` (centres unmarked) [Compound 1700], the IC50 is 501 nM.
The same measure, in the same setting: with `Cc1cc2c3c(ccc2o1)CN(C[C@@]1(c2cc4ncccc4o2)NC(=O)NC1=O)C3=O` [Compound 1701] the figure was more than 10000 nM.
The same measure, in the same setting: with `COCc1cc2c3c(ccc2o1)CN(C[C@@]1(c2cc4ncccc4o2)NC(=O)NC1=O)C3=O` [Compound 1702] the figure was more than 10000 nM; with `O=C1NC(=O)[C@](CN2Cc3ccc4oc(Cc5ccccc5)cc4c3C2=O)(c2cc3ncccc3o2)N1` [Compound 1703], more than 10000 nM.
The compound `O=C1NC(=O)[C@](CN2Cc3ccc4oc(C5CC5)cc4c3C2=O)(c2cc3ncccc3o2)N1` [Compound 1704] returned an IC50 of more than 10000 nM.
Compound `COc1ccc2c(c1)C(=O)N(C[C@@]1(C(=O)Cc3nc(Nc4cn[nH]c4)ccc3O)NC(=O)NC1=O)C2` [Compound 1705] gave an IC50 of 292 nM.
Same read-out and setting: with `CCN1CCCN(c2ccc(O)c(CC(=O)[C@]3(CN4Cc5ccc(OC)c(F)c5C4=O)NC(=O)NC3=O)n2)CC1` [Compound 1707] the figure was 1570 nM.

Staying with this series, now noted: Table B; human whole blood diluted 1:1, LPS stimulation, 3.5 h, TNF-α by ELISA.
The compound `COc1ccc2c(c1)C(=O)N(C[C@@]1(c3cc4nc(C(=N)N)ccc4o3)NC(=O)NC1=O)C2` [Compound 2200] displayed an IC50 of 307 nM.
Same read-out and setting: the result for `COc1c(Cl)cc2c(c1Cl)C(=O)N(C[C@@]1(c3cc4cnccc4o3)NC(=O)NC1=O)C2` [Compound 2201] reads not below 10000 nM.
As to `COc1ccc2c(c1)CCN(C[C@@]1(c3cc4c5c(ccc4o3)C3(CC5)NC(=O)NC3=O)NC(=O)NC1=O)C2=O` (some centres unmarked) [Compound 2203], the IC50 amounted to 3560 nM.
Still for that read-out and setting: the result for `COc1ccc2c(c1)C(=O)N(C[C@@]1(c3cc4cc(/C(=N\O)N(C)CCN(C)C)ccc4o3)NC(=O)NC1=O)C2` [Compound 2206] reads 384 nM.
The same measure, in the same setting: with `CCN(CC)CCN(C)/C(=N/O)c1ccc2oc([C@]3(CN4Cc5ccc(OC)cc5C4=O)NC(=O)NC3=O)cc2c1` [Compound 2207] the figure was 308 nM.
Still for that read-out and setting: the result for `CCN(CC)CCN(CC)/C(=N/O)c1ccc2oc([C@]3(CN4Cc5ccc(OC)cc5C4=O)NC(=O)NC3=O)cc2c1` [Compound 2208] reads 281 nM.
Consider `COc1ccc2c(c1)C(=O)N(C[C@@]1(c3cc4cc(NS(N)(=O)=O)ccc4o3)NC(=O)NC1=O)C2` [Compound 2209], for which half-maximal inhibition (IC50) required 315 nM.
Compound `COc1ccc2c(c1)C(=O)N(C[C@@]1(c3cc4c5c(ccc4o3)C3(CC5)NC(=O)NC3=O)NC(=O)NC1=O)C2` (some centres unmarked) [Compound 2210] had an IC50 of 187 nM.
Still for that read-out and setting: the result for `COc1ccc2c(c1)C(=O)N(C[C@@]1(c3cc4c5c(ccc4o3)C3(CCC5)NC(=O)NC3=O)NC(=O)NC1=O)C2` (some centres unmarked) [Compound 2211] reads 570 nM; that for `COc1ccc2c(c1)C(=O)N(C[C@@]1(c3cc4c5c(ccc4o3)C3(CC5)CNC(=O)N3)NC(=O)NC1=O)C2` (some centres unmarked) [Compound 2213], 335 nM; that for `COc1ccc2c(c1)C(=O)N(C[C@@]1(c3cc4ccc5c(c4o3)CCC53NC(=O)NC3=O)NC(=O)NC1=O)C2` (some centres unmarked) [Compound 2214], 1010 nM.
In turn, `COc1ccc2c(c1)C(=O)N(C[C@@]1(c3cc4ccc5c(c4o3)CCC53CNC(=O)N3)NC(=O)NC1=O)C2` (some centres unmarked) [Compound 2215] registered an IC50 of 628 nM.
Same read-out and setting: the result for `COc1ccc2c(c1F)C(=O)N(C[C@@]1(c3cc4c5c(ccc4o3)C3(CC5)NC(=O)NC3=O)NC(=O)NC1=O)C2` (some centres unmarked) [Compound 2216] reads 145 nM; that for `COc1ccc2c(c1)CCN(C[C@@]1(c3cc4c5c(ccc4o3)CNC5=O)NC(=O)NC1=O)C2=O` [Compound 2217], 1940 nM; that for `COc1ccc2c(c1)CCN(C[C@@]1(c3cc4nc(-c5cn[nH]c5)ccc4o3)NC(=O)NC1=O)C2=O` [Compound 2218], 284 nM.
Same read-out and setting: the result for `COc1ccc2c(c1)CCN(C[C@@]1(c3cc4cnccc4o3)NC(=O)NC1=O)C2=O` [Compound 2219] reads 1370 nM.
As to `COc1ccc2c(c1)C(=O)N(C[C@@]1(c3cc4c5c(ccc4o3)CCC53NC(=O)NC3=O)NC(=O)NC1=O)C2` (some centres unmarked) [Compound 2223], inhibition was half-maximal at 1000 nM (IC50).
The same measure, in the same setting: with `CCCN(C)C(=NO)c1ccc(C#C[C@]2(CN3Cc4ccc(OC)cc4C3=O)NC(=O)NC2=O)cc1` [Compound 2224] the figure was 239 nM; with `COc1ccc2c(c1)C(=O)N(C[C@@]1(C#Cc3ccc(C(=NO)N(C)C)s3)NC(=O)NC1=O)C2` [Compound 2227], 813 nM; with `COc1ccc2c(c1)C(=O)N(C[C@@]1(C#Cc3ccc(C(=NO)N(C)CCN(C)C)cc3)NC(=O)NC1=O)C2` [Compound 2228], 91 nM.
Same read-out and setting: with `CCN(CC)CCN(C)C(=NO)c1ccc(C#C[C@]2(CN3Cc4ccc(OC)cc4C3=O)NC(=O)NC2=O)cc1` [Compound 2229] the figure was 96 nM; with `COc1ccc2c(c1)C(=O)N(C[C@@]1(C#Cc3ccc(C(=O)NS(N)(=O)=O)cc3)NC(=O)NC1=O)C2` [Compound 2230], 434 nM.
Still for that read-out and setting: the result for `COc1ccc2c(c1)C(=O)N(C[C@@]1(C#Cc3ccc(C(=NO)N(C)C)cc3)NC(=O)NC1=O)C2` [Compound 2231] reads 152 nM; that for `CCN(CC)C(=NO)c1ccc(C#C[C@]2(CN3Cc4ccc(OC)cc4C3=O)NC(=O)NC2=O)cc1` [Compound 2234], 205 nM.
Compound `COc1ccc2c(c1)C(=O)N(C[C@@]1(C#Cc3ccc(C(C(N)=O)N4CCCN(C(=O)OC(C)(C)C)CC4)cc3)NC(=O)NC1=O)C2` (some centres unmarked) [Compound 2237] yielded an IC50 of 1180 nM.
Same read-out and setting: the result for `COc1ccc2c(c1)C(=O)N(C[C@@]1(C#Cc3ccc(C(C(=O)O)N4CCCN(C(=O)OC(C)(C)C)CC4)cc3)NC(=O)NC1=O)C2` (some centres unmarked) [Compound 2238] reads 1020 nM.
For the compound `COc1ccc2c(c1)C(=O)N(C[C@@]1(C#Cc3ccc(NC(=S)NCCN4CCOCC4)cc3)NC(=O)NC1=O)C2` [Compound 2239], the IC50 is 267 nM.
For `COc1ccc2c(c1)C(=O)N(C[C@@]1(C(=O)Cc3nc(NC4CCN(C)CC4)ccc3O)NC(=O)NC1=O)C2` [Compound 2241], the IC50 came out at 1270 nM.

Tested on in the next series: not listed separately
Description: Area under the curve determination of plasma levels in rats (rapid rat AUC). In kind it is in vivo. Conditions: Table A, oral, 10 mg/kg, blood 0.5-6 h post-dosing, read-out: RR AUC. How it is done:
Area Under the Curve Determinations of Plasma Levels in Rats (rrAUC)
To gain insight into the pharmacokinetic properties of the compounds of formula (I), plasma levels of the compounds in rats were determined according to the protocol described in Korfmacher, W. A.; Cox, K. A.; Ng, K. J.; Veals, J.; Hsieh, Y.; Wainhaus, S.; Broske, L.; Prelusky, D.; Nomeir, A.; White, R. E. Rapid Commun. Mass Spectrom, 2001, 15, 335, Briefly, rats, after an overnight fast, were dosed orally with the test compound at a dose of 10 mg/kg in a 5 mL/kg dose volume. Blood was collected at 0.5, 1, 2, 3, 4, and 6 h post-dosing. Mass spectrometry using high performance liquid chromatography was used to identify and measure the concentrations of the test compounds in the plasma at the various time points. The parent ion of each test compound was used to identify and quantitate the compounds in plasma.
Turning to `COC(=O)[C@@](CN1Cc2ccc(OC)c(F)c2C1=O)(NC(N)=O)c1cc2nc(Cl)c(F)cc2o1` [Compound 1304], the AUC is 0.113 µM·h.

The same series, now with this note: Table B, oral, 10 mg/kg, blood 0.5-6 h post-dosing, read-out: RR AUC.
Consider `COc1ccc2c(c1)C(=O)N(C[C@@]1(c3cc4c5c(ccc4o3)C3(CC5)NC(=O)NC3=O)NC(=O)NC1=O)C2` (some centres unmarked) [Compound 2210], for which the AUC was found to be 0.321 µM·h.
The same measure, in the same setting: with `COc1ccc2c(c1)C(=O)N(C[C@@]1(c3cc4c5c(ccc4o3)C3(CCC5)NC(=O)NC3=O)NC(=O)NC1=O)C2` (some centres unmarked) [Compound 2211] the figure was 0.055 µM·h; with `COc1ccc2c(c1)C(=O)N(C[C@@]1(c3cc4ccc5c(c4o3)CCC53NC(=O)NC3=O)NC(=O)NC1=O)C2` (some centres unmarked) [Compound 2214], 0.128 µM·h.
The same measure, in the same setting: the result for `COc1ccc2c(c1F)C(=O)N(C[C@@]1(c3cc4c5c(ccc4o3)C3(CC5)NC(=O)NC3=O)NC(=O)NC1=O)C2` (some centres unmarked) [Compound 2216] reads 1.6 µM·h.
